Measurements from patent US20240101570A1 (AMGEN INC., priority 2020, published 2024).

Key:
[1] = tested on: HCT116 MTAP null cells; assay: HCT116 MTAP null cell proliferation / viability (CellTiter-Glo, 6 days); format: cell-based; conditions: HCT116-MTAP null, 144 h, HCT116 MTAP null cells, 6 days, CellTiter-Glo; read-out: HCT-116 MTAP null IC50
Method in brief: (§1)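 Viability read by CellTiter-Glo after 6-day compound exposure of MTAP-null and wild-type HCT116 cells grown in RPMI 1640 with 10% FBS. Dosing used 1:3 steps from 1 or 10 μM (8-9 points) or 1:2 steps from 10 or 50 μM (22 points); IC50 taken where fitted curve crosses 50% of control.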

[2] = tested on: HCT116 WT cells; assay: HCT116 WT cell proliferation / viability (CellTiter-Glo, 6 days); format: cell-based; conditions: Homo sapiens, HCT-116, 144 h, HCT116 WT cells, 6 days, CellTiter-Glo; read-out: HCT-116 WT IC50
Method in brief: as §1

Compound | IC50 [1] | IC50 [2]
C[C@H]1OCc2c1c(N)nc1ccc(C(=O)N(Cc3ccc(C#N)cn3)C3CC3)cc21 [Example 355, (3R)-4-amino-N-((5-cyano-2-pyridinyl)methyl)-N-cyclopropyl-3-methyl-1,3-dihydrofuro[3,4-c]quinoline-8-carboxamide] | 171 nM | 19000 nM
C[C@H]1OCc2c1c(N)nc1ccc(C(=O)N(C)Cc3ccc(C4CC4)cn3)cc21 [Example 356, (3R)-4-amino-N-((5-cyclopropyl-2-pyridinyl)methyl)-N,3-dimethyl-1,3-dihydrofuro[3,4-c]quinoline-8-carboxamide] | 92 nM | 5360 nM
CC(C)N(Cc1ccc(C(F)(F)F)nn1)C(=O)c1cc2c3c(c(N)nc2cc1F)COC3 [Example 358, 4-amino-7-fluoro-N-(2-propanyl)-N-((6-(trifluoromethyl)-3-pyridazinyl)methyl)-1,3-dihydrofuro[3,4-c]quinoline-8-carboxamide] | 121 nM | 8160 nM
CCN(Cc1ccc(C(F)(F)F)cn1)C(=O)c1ccc2nc(N)c3c(c2c1)CO[C@@H]3C [Example 360, (3R)-4-amino-N-ethyl-3-methyl-N-((5-(trifluoromethyl)-2-pyridinyl)methyl)-1,3-dihydrofuro[3,4-c]quinoline-8-carboxamide] | 53 nM | 3070 nM
CCN(Cc1ccc(C(F)(F)F)cn1)C(=O)c1cc2c3c(c(N)nc2cn1)COC3 [Example 361, 4-amino-N-ethyl-N-((5-(trifluoromethyl)-2-pyridinyl)methyl)-1,3-dihydrofuro[3,4-c][1,7]naphthyridine-8-carboxamide] | 173 nM | 7750 nM
CCN(Cc1ccc(C(F)(F)F)cn1)C(=O)c1ccc2nc(N)c3c(c2c1)COC3 [Example 362, 4-amino-N-ethyl-N-((5-(trifluoromethyl)-2-pyridinyl)methyl)-1,3-dihydrofuro[3,4-c]quinoline-8-carboxamide] | 76 nM | 2210 nM
CC(C)N(Cc1ccc(C(F)(F)F)nn1)C(=O)c1cc2c3c(c(N)nc2cn1)COC3 [Example 366, 4-amino-N-(2-propanyl)-N-((6-(trifluoromethyl)-3-pyridazinyl)methyl)-1,3-dihydrofuro[3,4-c][1,7]naphthyridine-8-carboxamide] | 175 nM | 12500 nM
CN(Cc1ccc(C#N)cn1)C(=O)c1cc2c3c(c(N)nc2cn1)COC3 [Example 367, 4-amino-N-((5-cyano-2-pyridinyl)methyl)-N-methyl-1,3-dihydrofuro[3,4-c][1,7]naphthyridine-8-carboxamide] | 2280 nM | > 50000 nM
CC(C)N(Cc1ccc(C2CC2)cn1)C(=O)c1cc2c3c(c(N)nc2cc1F)COC3 [Example 371, 4-amino-N-((5-cyclopropyl-2-pyridinyl)methyl)-7-fluoro-N-(2-propanyl)-1,3-dihydrofuro[3,4-c]quinoline-8-carboxamide] | 10 nM | 288 nM
CCOc1ccc(CN(C(=O)c2ccc3nc(N)c4c(c3c2)COC4)[C@H](C)COC)nn1 [Example 373, 4-amino-N-((6-ethoxy-3-pyridazinyl)methyl)-N-((2R)-1-methoxy-2-propanyl)-1,3-dihydrofuro[3,4-c]quinoline-8-carboxamide] | 22 nM | 2980 nM
CN(Cc1ccc(C(F)(F)F)nn1)C(=O)c1cc2c3c(c(N)nc2cn1)COC3 [Example 375, 4-amino-N-methyl-N-((6-(trifluoromethyl)-3-pyridazinyl)methyl)-1,3-dihydrofuro[3,4-c][1,7]naphthyridine-8-carboxamide] | 1500 nM | 6890 nM
CC(C)N(Cc1ccc(C2CC2)cn1)C(=O)c1ccc2nc(N)c3c(c2c1)CO[C@@H]3C [Example 377, (3R)-4-amino-N-((5-cyclopropyl-2-pyridinyl)methyl)-3-methyl-N-(2-propanyl)-1,3-dihydrofuro[3,4-c]quinoline-8-carboxamide] | 49 nM | 2060 nM
CCOc1ccc(CN(C(=O)c2cc3c4c(c(N)nc3cn2)COC4)C23CC(C2)C3)nn1 [Example 378, 4-amino-N-(bicyclo[1.1.1]pentan-1-yl)-N-((6-ethoxy-3-pyridazinyl)methyl)-1,3-dihydrofuro[3,4-c][1,7]naphthyridine-8-carboxamide] | 294 nM | 9430 nM
C[C@H]1OCc2c1c(N)nc1ccc(C(=O)N(Cc3ccc(C(F)(F)F)cn3)C34CC(C3)C4)cc21 [Example 380, (3R)-4-amino-N-(bicyclo[1.1.1]pentan-1-yl)-3-methyl-N-((5-(trifluoromethyl)-2-pyridinyl)methyl)-1,3-dihydrofuro[3,4-c]quinoline-8-carboxamide] | 56 nM | 4100 nM
Nc1nc2cc(F)c(C(=O)N(Cc3ccc(C(F)(F)F)cn3)C34CC(C3)C4)cc2c2c1COC2 [Example 381, 4-amino-N-(bicyclo[1.1.1]pentan-1-yl)-7-fluoro-N-((5-(trifluoromethyl)-2-pyridinyl)methyl)-1,3-dihydrofuro[3,4-c]quinoline-8-carboxamide] | 8 nM | 1560 nM

Continued by falling IC50 [1], values first:

IC50 [1] | IC50 [2] | Compound
623 nM | 21400 nM | CC(C)N(Cc1ccc(C#N)cn1)C(=O)c1ccc2nc(N)c3c(c2c1)CO[C@@H]3C [Example 354, (3R)-4-amino-N-((5-cyano-2-pyridinyl)methyl)-3-methyl-N-(2-propanyl)-1,3-dihydrofuro[3,4-c]quinoline-8-carboxamide]
226 nM | 10200 nM | CN(Cc1ccc(C(F)(F)F)nn1)C(=O)c1cc2c3c(c(N)nc2cc1F)COC3 [Example 359, 4-amino-7-fluoro-N-methyl-N-((6-(trifluoromethyl)-3-pyridazinyl)methyl)-1,3-dihydrofuro[3,4-c]quinoline-8-carboxamide]
222 nM | 15200 nM | C[C@H]1OCc2c1c(N)nc1ccc(C(=O)N(C)Cc3ccc(C(F)(F)F)cn3)cc21 [Example 376, (3R)-4-amino-N,3-dimethyl-N-((5-(trifluoromethyl)-2-pyridinyl)methyl)-1,3-dihydrofuro[3,4-c]quinoline-8-carboxamide]
124 nM | > 10000 nM | C[C@H]1OCc2c1c(N)nc1ccc(C(=O)N(Cc3ccc(C(F)(F)F)nn3)C3CC3)cc21 [Example 353, (3R)-4-amino-N-cyclopropyl-3-methyl-N-((6-(trifluoromethyl)-3-pyridazinyl)methyl)-1,3-dihydrofuro[3,4-c]quinoline-8-carboxamide]
124 nM | 5040 nM | Nc1nc2cc(F)c(C(=O)N(Cc3ccc(C(F)(F)F)cn3)C3CC3)cc2c2c1COC2 [Example 369, 4-amino-N-cyclopropyl-7-fluoro-N-((5-(trifluoromethyl)-2-pyridinyl)methyl)-1,3-dihydrofuro[3,4-c]quinoline-8-carboxamide]
115 nM | 4270 nM | Nc1nc2cc(F)c(C(=O)N(Cc3ccc(C(F)(F)F)nn3)C3CC3)cc2c2c1COC2 [Example 357, 4-amino-N-cyclopropyl-7-fluoro-N-((6-(trifluoromethyl)-3-pyridazinyl)methyl)-1,3-dihydrofuro[3,4-c]quinoline-8-carboxamide]
110 nM | 5610 nM | CN(Cc1ccc(C2CC2)cn1)C(=O)c1cc2c3c(c(N)nc2cc1F)COC3 [Example 372, 4-amino-N-((5-cyclopropyl-2-pyridinyl)methyl)-7-fluoro-N-methyl-1,3-dihydrofuro[3,4-c]quinoline-8-carboxamide]
76 nM | 6500 nM | Nc1nc2cnc(C(=O)N(Cc3ccc(C(F)(F)F)cn3)C3CC3)cc2c2c1COC2 [Example 365, 4-amino-N-cyclopropyl-N-((5-(trifluoromethyl)-2-pyridinyl)methyl)-1,3-dihydrofuro[3,4-c][1,7]naphthyridine-8-carboxamide]
65 nM | 3260 nM | C[C@H]1OCc2c1c(N)nc1ccc(C(=O)N(Cc3ccc(C4CC4)cn3)C3CC3)cc21 [Example 368, (3R)-4-amino-N-cyclopropyl-N-((5-cyclopropyl-2-pyridinyl)methyl)-3-methyl-1,3-dihydrofuro[3,4-c]quinoline-8-carboxamide]
58 nM | 1760 nM | CC(C)N(Cc1ccc(C2CC2)cn1)C(=O)c1ccc2nc(N)c3c(c2c1)COC3 [Example 364, 4-amino-N-((5-cyclopropyl-2-pyridinyl)methyl)-N-(2-propanyl)-1,3-dihydrofuro[3,4-c]quinoline-8-carboxamide]
36 nM | 1180 nM | CC(C)N(Cc1ccc(C2CC2)nc1)C(=O)c1cc2c3c(c(N)nc2cc1F)COC3 [Example 363, 4-amino-N-((6-cyclopropyl-3-pyridinyl)methyl)-7-fluoro-N-(2-propanyl)-1,3-dihydrofuro[3,4-c]quinoline-8-carboxamide]
29 nM | 1370 nM | Nc1nc2cc(F)c(C(=O)N(Cc3ccc(C4CC4)cn3)C3CC3)cc2c2c1COC2 [Example 370, 4-amino-N-cyclopropyl-N-((5-cyclopropyl-2-pyridinyl)methyl)-7-fluoro-1,3-dihydrofuro[3,4-c]quinoline-8-carboxamide]
25 nM | 764 nM | CC(C)N(Cc1ccc(C2CC2)cn1)C(=O)c1cc2c3c(c(N)nc2cc1Cl)COC3 [Example 379, 4-amino-7-chloro-N-((5-cyclopropyl-2-pyridinyl)methyl)-N-(2-propanyl)-1,3-dihydrofuro[3,4-c]quinoline-8-carboxamide]
14 nM | 286 nM | CCOc1ccc(CN(C(=O)c2ccc3nc(N)c4c(c3c2)CO[C@@H]4C)[C@H](C)COC)nn1 [Example 374, (3R)-4-amino-N-((6-ethoxy-3-pyridazinyl)methyl)-N-((2R)-1-methoxy-2-propanyl)-3-methyl-1,3-dihydrofuro[3,4-c]quinoline-8-carboxamide]
